Data taken from PubChem BioAssay AID504627 (NMMLSC, 2011).
Activity calls are given as the source filed them.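 The calls were made as follows: active = polarization drop versus untreated control wells larger than 25 mP; inactive = the rest.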

Assays:
Assay in all cases: Bcl-2 family protein peptide binding inhibitors, dose response, biochemical, fluorescence polarization, powder compounds set 1, panel (AID 504627)
[1] = molecular target: Apoptosis regulator Bcl-2 (Homo sapiens) (UniProt P10415); settings: GST-Bcl-2 family protein, FITC-peptide fluorescence polarization, Bcl2; for polarization signal (mP), lower = inhibition: at 50 µM (top of the series)
[2] = molecular target: Bcl-2-like protein 1 (Homo sapiens) (UniProt Q07817); settings: GST-Bcl-2 family protein, FITC-peptide fluorescence polarization, BclXL; for polarization signal (mP), lower = inhibition: at 50 µM (top of the series)
[3] = molecular target: Bcl-2-like protein 10 (Homo sapiens) (UniProt Q9HD36); settings: GST-Bcl-2 family protein, FITC-peptide fluorescence polarization, BclB; for polarization signal (mP), lower = inhibition: at 50 µM (top of the series)
[4] = molecular target: Bcl-2-related protein A1 (Homo sapiens) (UniProt Q16548); settings: GST-Bcl-2 family protein, FITC-peptide fluorescence polarization, Bfl1; for polarization signal (mP), lower = inhibition: at 50 µM (top of the series)
Chain of Bcl-2-related protein A1 (Homo sapiens) (Q16548 whole entry, looked up): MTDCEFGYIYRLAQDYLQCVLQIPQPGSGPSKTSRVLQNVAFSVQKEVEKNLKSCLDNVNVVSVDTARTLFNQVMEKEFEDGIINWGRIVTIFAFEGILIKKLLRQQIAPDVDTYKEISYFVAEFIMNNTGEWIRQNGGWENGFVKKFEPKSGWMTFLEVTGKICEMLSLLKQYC

Chain of Apoptosis regulator Bcl-2 (Homo sapiens) (P10415 whole entry, looked up): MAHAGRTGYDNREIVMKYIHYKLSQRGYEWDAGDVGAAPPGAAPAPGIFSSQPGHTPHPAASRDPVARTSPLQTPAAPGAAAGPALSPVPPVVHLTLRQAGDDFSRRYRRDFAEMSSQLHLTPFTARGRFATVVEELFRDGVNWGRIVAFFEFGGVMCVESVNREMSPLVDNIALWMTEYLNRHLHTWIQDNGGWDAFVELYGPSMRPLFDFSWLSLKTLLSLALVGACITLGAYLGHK
Chain of Bcl-2-like protein 10 (Homo sapiens) (Q9HD36 whole entry, looked up): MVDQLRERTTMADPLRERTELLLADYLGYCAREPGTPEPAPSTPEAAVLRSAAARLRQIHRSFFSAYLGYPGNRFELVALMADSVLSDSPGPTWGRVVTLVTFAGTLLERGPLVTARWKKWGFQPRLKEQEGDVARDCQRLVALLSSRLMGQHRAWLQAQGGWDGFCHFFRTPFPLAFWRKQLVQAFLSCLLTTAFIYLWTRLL
Chain of Bcl-2-like protein 1 (Homo sapiens) (Q07817 whole entry, looked up): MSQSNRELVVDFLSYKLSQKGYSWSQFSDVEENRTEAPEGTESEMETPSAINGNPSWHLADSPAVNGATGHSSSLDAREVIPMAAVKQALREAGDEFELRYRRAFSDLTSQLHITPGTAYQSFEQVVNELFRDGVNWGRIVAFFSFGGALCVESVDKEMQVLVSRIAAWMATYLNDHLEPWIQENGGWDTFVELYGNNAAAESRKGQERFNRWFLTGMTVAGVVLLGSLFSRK

Row | SMILES | polarization signal (mP), lower = inhibition [1] | polarization signal (mP), lower = inhibition [2] | IC50 [3] [µM] | polarization signal (mP), lower = inhibition [4] | polarization signal (mP), lower = inhibition [3] | IC50 [1] [µM] | IC50 [2] [µM] | IC50 [4] [µM]
1 | O=c1c2c(n3nnnc3n1Cc1ccccc1)-c1ccccc1CC21CCCC1 | inactive | inactive | 1.13 | inactive | – | – | – | –
2 | CNC(CC(=O)c1ccc([N+](=O)[O-])cc1)C(Cl)(Cl)Cl (stereo not given) | inactive | inactive | – | inactive | inactive | – | – | –
3 | COc1ccccc1-n1c(-c2ccccc2)c[nH]c1=S | inactive | inactive | – | inactive | inactive | – | – | –
4 | Cc1ccc(C=NNC(=O)CSc2nnc(-c3ccc(Cl)cc3)n2-c2ccccc2)o1 | inactive | inactive | 8.58 | inactive | – | – | – | –
5 | Cc1cc(-c2cc(-c3ccc(Cl)cc3)nc(N)c2C#N)co1 | inactive | inactive | – | inactive | inactive | – | – | –
6 | Oc1ccc(NCc2ccccc2OCc2ccccc2)cc1 | inactive | inactive | – | inactive | inactive | – | – | –
7 | Cc1ccc(-c2cc(-c3ccc(C)o3)nc(N)c2C#N)cc1 | inactive | inactive | – | inactive | inactive | – | – | –
8 | Cc1ccc(-c2cc(-c3ccc(F)cc3)c(C#N)c(N)n2)o1 | inactive | inactive | – | inactive | inactive | – | – | –
9 | O=C1C(Cl)=C(N2CCN(c3ccccc3[N+](=O)[O-])CC2)C(=O)c2ccccc21 | – | – | 3.99 | – | – | 5.64 | 4.4 | 2.73
10 | O=C1NC(=O)C2(Cc3c(nc4ccccn4c3=O)N3CCCCCC32)C(=O)N1Cc1ccccc1 (stereo not given) | inactive | inactive | 1.16 | inactive | – | – | – | –
